The source of these data is article PMC5927774, “Isoxazol-5(2H)-one: a new scaffold for potent human neutrophil elastase (HNE) inhibitors” (Journal of Enzyme Inhibition and Medicinal Chemistry, 2017).

Each structure is given as a SMILES string.

The target of data set [1] is T1, HNE (Homo sapiens, UniProt P08246).
T1 construct: purchased Calbiochem, La Jolla, CA
T1 sequence (P08246 30-267): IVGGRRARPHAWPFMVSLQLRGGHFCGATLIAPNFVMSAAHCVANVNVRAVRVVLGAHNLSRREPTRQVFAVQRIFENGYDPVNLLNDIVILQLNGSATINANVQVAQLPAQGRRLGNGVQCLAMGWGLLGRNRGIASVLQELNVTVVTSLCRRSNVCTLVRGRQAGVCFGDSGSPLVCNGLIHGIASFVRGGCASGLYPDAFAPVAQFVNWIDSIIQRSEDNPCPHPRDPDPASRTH
The experiment in a line: Reversibility of the HNE-inhibitor complex over time (kinetic curves). The data set is classed as biochemical. Conditions: compound at 5 μM. The procedure:
(§1) However, inhibition by compound 2s was reversed after 10 min. […] To better understand the mechanism of action of this isoxazolone HNE inhibitor, we performed additional kinetic experiments.
Figure 6. Evaluation of HNE inhibition by selected isoxazolone derivatives. HNE was incubated with the indicated compounds at 5 μM concentrations, and kinetic curves monitoring substrate cleavage catalysed by HNE are shown. Representative curves are from three independent experiments.

Data set [2] addresses T2, HNE (human neutrophil elastase) (Homo sapiens, UniProt P08246).
T2 construct: purchased Calbiochem, La Jolla, CA
T2 sequence (P08246 30-267): T1 sequence (P08246 30-267)
The experiment in a line: HNE inhibition assay (fluorogenic substrate). In kind it is biochemical. Conditions: for IC50: Table 1, mean ± SD of three independent experiments, NA = no inhibitory activity at the highest concentration tested (50 μM).
Experimental: HNE inhibition assay. Compounds were dissolved in 100% DMSO at 5 mM stock concentrations. The final concentration of DMSO in the reactions was 1%, and this level of DMSO had no effect on enzyme activity. The HNE inhibition assay was performed in black flat-bottom 96-well microtiter plates. Briefly, a buffer solution containing 200 mM Tris–HCl, pH 7.5, 0.01% bovine serum albumin, 0.05% Tween-20, and 20 mU/ml of HNE (Calbiochem, La Jolla, CA) was added to wells containing different concentrations of each compound. The reaction was initiated by addition of 25 μM elastase substrate (N-methylsuccinyl-Ala-Ala-Pro-Val-7-amino-4-methylcoumarin, Calbiochem) in a final reaction volume of 100 μL/well. Kinetic measurements were obtained every 30 s for 10 min at 25 °C using a Fluoroskan Ascent FL fluorescence microplate reader (Thermo Electron, Waltham, MA) with excitation and emission wavelengths at 355 and 460 nm, respectively. For all compounds tested, the concentration of inhibitor that caused 50% inhibition of the enzymatic reaction (IC50) was calculated by plotting % inhibition versus logarithm of inhibitor concentration (at least six points). The data are presented as the mean values of at least three independent experiments with relative standard deviations of <15%.

The target of data set [3] is T1, HNE. The experiment in a line: Compound hydrolysis in the presence of HNE. Conditions: for half-life: human, phosphate buffer supplemented with HNE (400 mU/ml), pH 7.3, 400 mU/ml HNE, read-out: t1/2 (h) In the presence HNE (converted). The data set is classed as biochemical. On the procedure: (§2) Spontaneous hydrolysis of selected derivatives was evaluated at 25 °C in 0.05 M phosphate buffer, pH 7.3. Kinetics of hydrolysis were monitored by measuring changes in absorbance spectra over time using a SpectraMax Plus microplate spectrophotometer (Molecular Devices, Sunnyvale, CA). Absorbance (At) at the characteristic absorption maxima of each compound was measured at the indicated times until no further absorbance decreases occurred (A∞)[30]. Using these measurements, we created semilogarithmic plots of log(At – A∞) versus time, and k′ values were determined from the slopes of these plots. Half-conversion times were calculated using t1/2=0.693/k′, as described previously.
In the presence of 400 mU/ml HNE, the hydrolysis was 2.2–4.8-fold higher than for spontaneous hydrolysis (i.e. without HNE) (Table 3).
Figure 5. Analysis of compound 2i spontaneous hydrolysis. Compound 2i (80 μM) was incubated in 0.05 M phosphate buffer ([…], 25 °C) supplemented with […] HNE, as indicated. Spontaneous hydrolysis was monitored by measuring changes in absorbance at 275 nm (absorption maximum of compound 2i) over time. The data are presented as the mean ± SD of triplicate samples from one experiment, which is representative of two independent experiments.

Data set [4] is described as follows: Spontaneous hydrolysis (chemical stability) in aqueous buffer. In kind it is physicochemical. Conditions: 25 °C, 0.05 M phosphate buffer, pH 7.3; read-out: t1/2 (h) Spontaneous hydrolysis (converted). On the procedure:
as §2

Data set [5] addresses T1, HNE. The experiment in a line: Lineweaver-Burk analysis of HNE inhibition. Conditions: double-reciprocal Lineweaver-Burk plot. The data set is classed as biochemical. On the procedure: as §1
Figure 7. Kinetics of HNE inhibition by compound 2o. Representative double-reciprocal Lineweaver–Burk plot from three independent experiments.

As for `Cc1cccc(C(=O)n2oc(=O)cc2C(C)C)c1` [Compound 2n, 3-Isopropyl-2-(3-methylbenzoyl)isoxazol-5(2H)-one], the “time during which HNE inhibition was maximal” value in data set [1] was determined as 30 min. In data set [2], this compound gave an IC50 of 42 ± 11 nM. Besides, the half-life is 2.6 h in data set [3] and 6.2 h in data set [4].

With `CCc1c(C)n(C(=O)C2CC2)oc1=O` [Compound 2c, 2-(Cyclopropanecarbonyl)-4-ethyl-3-methylisoxazol-5(2H)-one], half-maximal inhibition in data set [2] (IC50) required 130 ± 25 nM.

The compound `CCc1c(C)c(=O)on1C(=O)C1CC1` [Compound 2e, 2-(Cyclopropanecarbonyl)-3-ethyl-4-methylisoxazol-5(2H)-one] displayed an IC50 in data set [2] of 2200 ± 280 nM.

As to `CCOC(=O)c1c(C)c(=O)on1C(=O)C1CC1` [Compound 2g, Ethyl 2-(cyclopropanecarbonyl)-4-methyl-5-oxo-2,5-dihydroisoxazole-3-carboxylate], half-maximal inhibition in data set [2] (IC50) was put at 440 ± 140 nM. Compared with the last compound, the IC50 is about 5-fold lower.

With `Cc1c(C)n(C(=O)C2CC2)oc1=O` [Compound 2a, 2-(Cyclopropanecarbonyl)-3,4-dimethylisoxazol-5(2H)-one], the IC50 in data set [2] amounted to 120 ± 23 nM. Compared with the last compound, the IC50 is about 3.7-fold lower.

The compound `CC(C)c1cc(=O)on1C(=O)C1CCCC1` [Compound 2m, 2-(Cyclopentanecarbonyl)-3-isopropylisoxazol-5(2H)-one] came in with an IC50 in data set [2] of 560 ± 150 nM.

For the compound `CC(C)c1cc(=O)on1C(=O)c1ccc(C#N)cc1` [Compound 2q, 4-(3-Isopropyl-5-oxo-2,5-dihydroisoxazole-2-carbonyl)benzonitrile], the melting point lay within 113 to 115 °C. In data set [2], this compound had an IC50 of 18200 ± 2500 nM.

Consider `CC(C)c1cc(=S)on1C(=O)C1CC1` [Compound 3a, Cyclopropyl-(3-isopropyl-5-thioxoisoxazol-2(5H)-yl)methanone], for which, in data set [2], the 50% inhibitory concentration (IC50) was 2100 ± 310 nM.

For `Cc1cccc(C(=O)n2oc(=S)cc2C(C)C)c1` [Compound 3b, (3-Isopropyl-5-thioxoisoxazol-2(5H)-yl)-(m-tolyl)methanone], the “HNE inhibitory activity (in words)” value in data set [2] is “inactivity”.

`Cc1cccc(Cn2oc(=O)c(C)c2C)c1` [Compound 4a, 3,4-Dimethyl-2-(3-methylbenzyl)isoxazol-5(2H)-one] showed a melting point of 80 to 83 °C.

`Cc1cccc(C(=O)n2oc(=O)c(C)c2C)c1` [Compound 2b, 3,4-Dimethyl-2-(3-methylbenzoyl)isoxazol-5(2H)-one] yielded an IC50 in data set [2] of 10900 ± 1200 nM.

On to `CC(C)c1cc(=O)on1C(=O)c1cccc(C#N)c1` [Compound 2p, 3-(3-Isopropyl-5-oxo-2,5-dihydroisoxazole-2-carbonyl)benzonitrile], for which the IC50 in data set [2] came to 6500 ± 1700 nM.

For the compound `CCc1cc(=O)on1C(=O)c1cccc(C)c1` [Compound 2j, 3-Ethyl-2-(3-methylbenzoyl)isoxazol-5(2H)-one], the melting point is 81 to 84 °C. For the same compound, the “time during which HNE inhibition was maximal” value in data set [1] is 30 min. In addition, the “fold higher inhibitory activity with respect to the corresponding 4-methyl derivative” value in data set [2] (2i vs 2e, 2j vs 2f) came to 42 fold. In addition, it took 43 ± 11 nM to reach half-maximal inhibition in data set [2] (IC50). The half-life in data set [3] is 2.1 h. Besides, in data set [4], the half-life is 5.3 h.

With `CCC(=O)n1oc(=O)cc1C(C)C` [Compound 2k, 3-Isopropyl-2-propionylisoxazol-5(2H)-one], the melting point lay within 92 to 95 °C. In data set [2], this compound had an IC50 of 1100 ± 140 nM.

Compound `CCc1c(C)c(=O)on1C(=O)c1cccc(C)c1` [Compound 2f, 3-Ethyl-4-methyl-2-(3-methylbenzoyl)isoxazol-5(2H)-one] returned an IC50 in data set [2] of 1800 ± 320 nM.

As for `CC(C)c1cc(=O)on1C(=O)c1cccc(C(F)(F)F)c1` [Compound 2r, 3-Isopropyl-2-(3-(trifluoromethyl)benzoyl)isoxazol-5(2H)-one], in data set [2], the IC50 came to 1200 ± 220 nM.

For the compound `CCc1cc(=O)on1C(=O)C1CC1` [Compound 2i, 2-(Cyclopropanecarbonyl)-3-ethylisoxazol-5(2H)-one], in data set [1], the “time during which HNE inhibition was maximal” value is 30 min. In data set [2], it took 96 ± 22 nM to reach half-maximal inhibition (IC50). Besides, the “hydrolysis with increasing HNE concentration (in words)” value in data set [3] (80 μM compound, 0.05 M phosphate buffer pH 7.5, 25 °C, 0, 50, 200, 400 μg/ml HNE, absorbance at 275 nm) is recorded as “dose-dependent hydrolysis”. In addition, the half-life was 4 h in data set [3] and 19.3 h in data set [4].

Turning to `CC(C)c1cc(=O)on1C(=O)c1ccc(C(F)(F)F)cc1` [Compound 2s, 3-Isopropyl-2-(4-(trifluoromethyl)benzoyl)isoxazol-5(2H)-one], in data set [1], the “time after which HNE inhibition was reversed” value came to 10 min. Further, the IC50 in data set [2] was determined as 34 ± 12 nM. Also, the values for the half-life in data set [3] and in data set [4] were 0.9 h and 3.1 h, respectively.

With `CCc1c(C)n(C(=O)c2cccc(C)c2)oc1=O` [Compound 2d, 4-Ethyl-3-methyl-2-(3-methylbenzoyl)isoxazol-5(2H)-one], the “time during which HNE inhibition was maximal” value in data set [1] is 30 min. Moreover, in data set [2], the IC50 is 94 ± 23 nM. Also, the half-life is 3.5 h in data set [3] and 7.7 h in data set [4].

`Cc1ccc(C(=O)n2oc(=O)cc2C(C)C)cc1` [Compound 2o, 3-Isopropyl-2-(4-methylbenzoyl)isoxazol-5(2H)-one] had a melting point of 77 to 79 °C. Also, the “time after which HNE inhibition was reversed” value in data set [1] came to 120 min. Besides, in data set [2], the IC50 amounted to 20 ± 7 nM. Also, the half-life in data set [3] is 3.4 h. Besides, the half-life in data set [4] was 8.9 h. For the same compound, the “mechanism of HNE inhibition (in words)” value in data set [5] was “competitive HNE inhibitor”.

As for `CC(C)c1cc(=O)on1C(=O)C1CC1` [Compound 2l, 2-(Cyclopropanecarbonyl)-3-isopropylisoxazol-5(2H)-one], the “time during which HNE inhibition was maximal” value in data set [1] was found to be 30 min. This compound also returned an IC50 in data set [2] of 34 ± 9 nM. Besides, the half-life in data set [3] is 4.3 h; in data set [4], 19.3 h.

Take `CCOC(=O)c1c(C)c(=O)on1C(=O)c1cccc(C)c1` [Compound 2h, Ethyl 4-methyl-2-(3-methylbenzoyl)-5-oxo-2,5-dihydroisoxazole-3-carboxylate]: inhibition in data set [2] was half-maximal at 39700 ± 5100 nM (IC50).
